The values that follow are results of earlier work, collected in patent publication US20120108429A1, “SAFENED AND EFFICACIOUS WEED CONTROL PARTICLE” (The Andersons, Inc., priority 2010, published 2012).

Each structure is given as a SMILES string.

The data set has as its system pentas and hemerocallis. Conditions: application of the herbicide.

With `C#CCN1C(=O)COc2cc(F)c(N3C(=O)C4=C(CCCC4)C3=O)cc21` [flumioxazin], the “effect on growth of ornamental plants” value is given as “inhibited from properly growing”.
